What was measured:
Test in all cases: relative viability (nuclei count vs DMSO), 5 days (fraction); higher = more cells survive
[1] = compound: COc1cc2/c(=N/c3ccc(Br)cc3F)nc[nH]c2cc1OCC1CCN(C)CC1 [Vandetanib] + Cc1nc(Nc2ncc(C(=O)Nc3c(C)cccc3Cl)s2)cc(N2CCN(CCO)CC2)n1 [Dasatinib] (partner 0.075 µM)
How it was run: (§1)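 Dosing by pin tool came one day after lung cancer cell lines were seeded in 1536-well plates, using either one drug or a fixed anchor-drug dose plus five library-drug doses (not always all listed) in √10 steps. After 5 days, nuclei were counted on 4× images. Relative viability is treated-well nuclei count divided by vehicle-well nuclei count, and values are medians of duplicate plates.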

[2] = compound: COc1cc2/c(=N/c3ccc(Br)cc3F)nc[nH]c2cc1OCC1CCN(C)CC1 [Vandetanib] + NC(=O)Nc1cc(-c2cccc(F)c2)sc1C(=O)N[C@H]1CCCNC1 [AZD7762] (partner 0.2 µM)
How it was run: as §1

[3] = compound: COc1cc(N2CCC(N3CCN(C)CC3)CC2)ccc1Nc1ncc(Cl)c(Nc2ccccc2S(=O)(=O)C(C)C)n1 [NVP-TAE684] + NC(=O)Nc1cc(-c2cccc(F)c2)sc1C(=O)N[C@H]1CCCNC1 [AZD7762] (partner 0.2 µM)
How it was run: as §1

[4] = compound: COc1cc2/c(=N/c3ccc(Br)cc3F)nc[nH]c2cc1OCC1CCN(C)CC1 [Vandetanib] + O=C(CCCCCCC(=O)Nc1ccccc1)NO [Vorinostat] (partner 1 µM)
How it was run: as §1

Cell Line | relative viability ([1]; first compound 0.02 µM) | relative viability ([1]; first compound 0.06325 µM) | relative viability ([1]; first compound 0.2 µM) | relative viability ([1]; first compound 0.6325 µM) | relative viability ([1]; first compound 2 µM) | relative viability ([2]; first compound 0.02 µM) | relative viability ([2]; first compound 0.06325 µM) | relative viability ([2]; first compound 0.2 µM) | relative viability ([2]; first compound 0.6325 µM) | relative viability ([2]; first compound 2 µM) | relative viability ([3]; first compound 0.2 µM) | relative viability ([3]; first compound 0.6325 µM) | relative viability ([3]; first compound 2 µM) | relative viability ([4]; first compound 0.02 µM) | relative viability ([4]; first compound 0.06325 µM) | relative viability ([4]; first compound 0.2 µM) | relative viability ([4]; first compound 0.6325 µM) | relative viability ([4]; first compound 2 µM)
HOP-62 | 0.611 | 0.569 | 0.671 | 0.573 | 0.684 | 0.661 | 0.536 | 0.577 | 0.412 | 0.485 | 0.898 | 0.611 | 0.525 | 0.553 | 0.574 | 0.651 | 0.686 | 0.811
NCI-H2085 | 0.226 | 0.236 | 0.2 | 0.279 | 0.244 | 0.941 | 0.944 | 0.951 | 0.857 | 0.946 | 0.991 | 0.953 | 0.797 | 0.836 | 0.74 | 0.66 | 0.773 | 0.777
NCI-H2087 | 0.809 | 0.661 | 0.684 | 0.835 | 0.984 | 1.38 | 1.23 | 1.54 | 1.4 | 1.49 | 1.47 | 1.37 | 1.22 | 0.755 | 0.604 | 0.657 | 0.614 | 0.922
NCI-H1395 | 0.349 | 0.373 | 0.417 | 0.405 | 0.444 | 0.404 | 0.399 | 0.427 | 0.418 | 0.434 | 0.417 | 0.367 | 0.397 | 0.622 | 0.881 | 0.495 | 0.63 | 0.596
CAL-12T | 0.426 | 0.407 | 0.387 | 0.29 | 0.32 | 0.676 | 0.611 | 0.631 | 0.643 | 0.574 | 0.741 | 0.492 | 0.418 | 0.724 | 0.549 | 0.67 | 0.759 | 0.415

— the supplement of paper PMC10307832
